In brackets after ≈: the same amount, converted by molar mass.
Key:
[1] = biological target: T1, Activin receptor type-1-like (Homo sapiens, UniProt P37023); assay: Inhibition of ALK1 (unknown origin)
[2] = biological target: T1, Activin receptor type-1-like; assay: Inhibition of ALK1 in HMEC-1 assessed as translocation of pSMAD1/5
[3] = Lipophilicity, log D of the compound at pH 7.4; format: physicochemical; conditions: buffer
[4] = Solubility of the compound; format: physicochemical
[5] = biological target: Proto-oncogene tyrosine-protein kinase Src (Homo sapiens) (UniProt P12931); assay: Inhibition of Src (unknown origin) by HTRF assay
Chain of Proto-oncogene tyrosine-protein kinase Src (Homo sapiens) (P12931 2-536 limits assumed): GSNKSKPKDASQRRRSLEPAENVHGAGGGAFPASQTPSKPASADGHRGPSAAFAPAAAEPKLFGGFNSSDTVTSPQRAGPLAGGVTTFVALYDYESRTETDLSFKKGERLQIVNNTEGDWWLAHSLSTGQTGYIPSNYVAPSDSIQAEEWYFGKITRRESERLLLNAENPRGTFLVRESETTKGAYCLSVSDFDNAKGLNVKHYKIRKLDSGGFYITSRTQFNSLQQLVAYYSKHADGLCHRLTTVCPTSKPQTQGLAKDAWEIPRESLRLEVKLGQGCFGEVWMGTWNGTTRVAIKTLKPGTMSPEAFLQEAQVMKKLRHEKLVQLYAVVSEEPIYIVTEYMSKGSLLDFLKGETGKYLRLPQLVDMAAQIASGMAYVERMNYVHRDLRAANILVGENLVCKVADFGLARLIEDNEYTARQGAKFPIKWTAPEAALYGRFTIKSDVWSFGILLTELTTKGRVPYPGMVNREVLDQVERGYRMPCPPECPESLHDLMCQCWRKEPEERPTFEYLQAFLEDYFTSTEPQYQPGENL

[6] = biological target: TGF-beta receptor type-1 (Homo sapiens) (UniProt P36897); assay: Inhibition of ALK5 in recombinant human MDA-MB-468 cells assessed as translocation of GFP-smad2; format: cell-based
[7] = biological target: T1, Activin receptor type-1-like; assay: Inhibition of human recombinant GST-tagged ALK1 expressed in baculovirus by FRET assay
[8] = biological target: Activin receptor type-1 (Homo sapiens, UniProt Q04771); assay: Inhibition of human recombinant GST-tagged ALK2 (amino acid 147 end) by FRET assay
[9] = biological target: Bone morphogenetic protein receptor type-1A (Homo sapiens, UniProt P36894); assay: Inhibition of human recombinant N-terminal GST-tagged ALK3 (187 to 432 residues) expressed in insect cells by FRET assay
Chain of Bone morphogenetic protein receptor type-1A (P36894 whole entry, the tested form may be a part): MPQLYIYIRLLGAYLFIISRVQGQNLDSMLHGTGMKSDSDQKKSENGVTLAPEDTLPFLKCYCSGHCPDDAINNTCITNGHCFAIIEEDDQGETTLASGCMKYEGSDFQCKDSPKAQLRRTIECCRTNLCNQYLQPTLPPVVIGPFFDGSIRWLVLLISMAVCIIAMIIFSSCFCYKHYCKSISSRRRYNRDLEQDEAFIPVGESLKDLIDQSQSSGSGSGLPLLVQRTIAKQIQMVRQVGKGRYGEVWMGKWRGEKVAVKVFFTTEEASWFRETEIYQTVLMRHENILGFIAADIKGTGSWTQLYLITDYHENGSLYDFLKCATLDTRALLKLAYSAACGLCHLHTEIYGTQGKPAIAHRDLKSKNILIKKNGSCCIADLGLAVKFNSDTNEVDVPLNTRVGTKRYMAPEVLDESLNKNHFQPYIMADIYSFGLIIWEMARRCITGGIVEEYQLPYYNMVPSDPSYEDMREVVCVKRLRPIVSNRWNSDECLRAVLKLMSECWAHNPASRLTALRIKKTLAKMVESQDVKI

[10] = biological target: Activin receptor type-1B (Homo sapiens, UniProt P36896); assay: Inhibition of human recombinant GST-tagged ALK4 expressed in baculovirus by FRET assay
Chain of Activin receptor type-1B (P36896 whole entry): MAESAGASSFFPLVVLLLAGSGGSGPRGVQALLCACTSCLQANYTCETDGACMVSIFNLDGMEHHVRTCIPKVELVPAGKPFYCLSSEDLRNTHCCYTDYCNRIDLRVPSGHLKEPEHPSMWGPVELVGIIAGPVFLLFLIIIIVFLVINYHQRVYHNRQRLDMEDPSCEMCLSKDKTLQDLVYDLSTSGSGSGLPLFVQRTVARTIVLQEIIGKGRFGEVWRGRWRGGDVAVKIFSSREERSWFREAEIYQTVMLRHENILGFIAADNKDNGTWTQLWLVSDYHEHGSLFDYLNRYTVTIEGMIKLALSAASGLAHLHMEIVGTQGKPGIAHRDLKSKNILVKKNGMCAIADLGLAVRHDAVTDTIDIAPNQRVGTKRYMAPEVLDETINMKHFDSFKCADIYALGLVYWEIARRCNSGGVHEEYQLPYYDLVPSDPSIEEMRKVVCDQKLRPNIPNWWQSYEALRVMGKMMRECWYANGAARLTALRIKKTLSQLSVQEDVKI

[11] = biological target: TGF-beta receptor type-1 (Homo sapiens, UniProt P36897); assay: Inhibition of full length human N-terminal GST-tagged ALK5 expressed in baculovirus by FRET assay
[12] = biological target: Bone morphogenetic protein receptor type-1B (Homo sapiens, UniProt O00238); assay: Inhibition of human recombinant N-terminal GST-tagged ALK6 (149 amino acids end) expressed in baculovirus infected Sf9 insect cells by FRET assay
[13] = AUC in Han Wistar rat at 5 umol/kg; format: ADME, organism-based; conditions: in vivo
[14] = Clearance in Han Wistar rat; format: ADME, organism-based; conditions: in vivo
[15] = Oral bioavailability in Han Wistar rat; format: ADME, organism-based; conditions: in vivo
[16] = Ratio of free drug level in nude mouse at 5 umol/kg administered as single dose after 24 hrs to IC50 for ALK1 in HMEC-1; format: ADME; conditions: in vivo
[17] = test system: Mus musculus; assay: Free Cmax in nude mouse at 50 mg/kg, po administered as single dose after 24 hrs; format: ADME, organism-based; conditions: in vivo
[18] = test system: Mus musculus; assay: Free drug concentration in nude mouse at 50 mg/kg, po administered as single dose after 24 hrs; format: ADME, organism-based; conditions: in vivo
[19] = Fraction unbound in mouse plasma; format: ADME, cell-free
[20] = biological target: Ephrin type-A receptor 2 (Homo sapiens) (UniProt P29317); assay: Inhibition of human recombinant EPHA2 receptor (591 to 976 residues) expressed in insect Sf21 cells at 1 uM using poly(Glu4-Tyr1) as substrate after 30 mins
Chain of Ephrin type-A receptor 2 (Homo sapiens) (P29317 whole entry, the tested form may be a part): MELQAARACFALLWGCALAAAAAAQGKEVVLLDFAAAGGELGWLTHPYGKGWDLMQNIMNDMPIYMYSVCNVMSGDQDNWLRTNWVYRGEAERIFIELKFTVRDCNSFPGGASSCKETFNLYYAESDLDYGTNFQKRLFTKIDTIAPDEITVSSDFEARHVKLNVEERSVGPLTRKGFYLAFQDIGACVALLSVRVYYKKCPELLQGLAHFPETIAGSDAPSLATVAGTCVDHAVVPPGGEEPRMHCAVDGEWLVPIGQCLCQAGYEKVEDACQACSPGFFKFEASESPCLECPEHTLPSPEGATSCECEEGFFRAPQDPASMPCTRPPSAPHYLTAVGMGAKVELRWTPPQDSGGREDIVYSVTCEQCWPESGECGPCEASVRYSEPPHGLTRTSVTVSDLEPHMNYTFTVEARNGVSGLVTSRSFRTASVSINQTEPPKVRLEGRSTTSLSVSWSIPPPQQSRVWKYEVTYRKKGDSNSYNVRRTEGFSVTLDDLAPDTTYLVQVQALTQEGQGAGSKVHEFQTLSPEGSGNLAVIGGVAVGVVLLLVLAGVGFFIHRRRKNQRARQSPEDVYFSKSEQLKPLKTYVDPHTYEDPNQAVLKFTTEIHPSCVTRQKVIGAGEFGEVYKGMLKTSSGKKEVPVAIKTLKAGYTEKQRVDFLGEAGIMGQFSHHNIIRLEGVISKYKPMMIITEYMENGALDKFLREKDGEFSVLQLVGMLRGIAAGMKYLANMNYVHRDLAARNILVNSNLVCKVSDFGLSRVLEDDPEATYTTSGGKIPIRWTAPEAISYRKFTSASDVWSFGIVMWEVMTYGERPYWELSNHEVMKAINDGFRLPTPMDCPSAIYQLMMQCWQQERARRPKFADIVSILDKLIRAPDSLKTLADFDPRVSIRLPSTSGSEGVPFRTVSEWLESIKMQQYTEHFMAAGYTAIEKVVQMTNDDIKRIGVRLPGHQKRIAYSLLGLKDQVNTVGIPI

[21] = biological target: Tyrosine-protein kinase Yes (Homo sapiens) (UniProt P07947); assay: Inhibition of human recombinant full-length YES1 expressed in insect Sf21 cells at 1 uM using poly(Glu4-Tyr1) as substrate after 30 mins
Chain of Tyrosine-protein kinase Yes (Homo sapiens) (P07947 2-543 limits assumed): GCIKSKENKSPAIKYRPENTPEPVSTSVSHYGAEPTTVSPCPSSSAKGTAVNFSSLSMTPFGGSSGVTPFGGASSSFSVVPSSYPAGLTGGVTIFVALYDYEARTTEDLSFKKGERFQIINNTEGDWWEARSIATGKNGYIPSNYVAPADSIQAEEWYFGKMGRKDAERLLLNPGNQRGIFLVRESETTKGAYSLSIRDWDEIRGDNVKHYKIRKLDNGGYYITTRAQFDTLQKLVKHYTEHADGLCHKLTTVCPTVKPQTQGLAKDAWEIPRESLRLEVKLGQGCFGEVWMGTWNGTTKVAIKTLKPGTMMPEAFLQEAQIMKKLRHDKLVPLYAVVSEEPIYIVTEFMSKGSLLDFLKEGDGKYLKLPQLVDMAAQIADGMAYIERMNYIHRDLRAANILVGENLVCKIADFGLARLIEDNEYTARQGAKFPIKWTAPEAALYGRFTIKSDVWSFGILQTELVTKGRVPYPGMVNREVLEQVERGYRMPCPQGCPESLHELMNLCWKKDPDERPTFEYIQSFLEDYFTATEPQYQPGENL

[22] = biological target: Proto-oncogene tyrosine-protein kinase Src (Homo sapiens) (UniProt P12931); assay: Inhibition of human recombinant full-length Src expressed in insect Sf21 cells at 1 uM using KVEKIGEGTYGVVYK as substrate after 30 mins
[23] = biological target: MAP kinase-interacting serine/threonine-protein kinase 1 (Homo sapiens) (UniProt Q9BUB5); assay: Inhibition of human recombinant full-length MNK1 expressed in Escherichia coli at 1 uM using eIF4E as substrate after 30 mins
Chain of MAP kinase-interacting serine/threonine-protein kinase 1 (Homo sapiens) (Q9BUB5 whole entry, looked up): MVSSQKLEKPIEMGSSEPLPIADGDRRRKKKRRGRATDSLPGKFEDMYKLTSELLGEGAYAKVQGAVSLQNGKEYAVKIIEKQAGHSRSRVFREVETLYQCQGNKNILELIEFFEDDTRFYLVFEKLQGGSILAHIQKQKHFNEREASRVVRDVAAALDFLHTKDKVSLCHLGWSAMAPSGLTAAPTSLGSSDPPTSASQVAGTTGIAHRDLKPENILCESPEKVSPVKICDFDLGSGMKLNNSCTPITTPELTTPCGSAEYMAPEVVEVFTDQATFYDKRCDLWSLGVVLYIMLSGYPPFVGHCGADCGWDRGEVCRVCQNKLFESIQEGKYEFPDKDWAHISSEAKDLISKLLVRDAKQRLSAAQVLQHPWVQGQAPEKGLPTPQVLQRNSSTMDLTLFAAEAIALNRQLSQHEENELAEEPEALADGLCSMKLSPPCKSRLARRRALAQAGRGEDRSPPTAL

[24] = biological target: Tyrosine-protein kinase BTK (Homo sapiens) (UniProt Q06187); assay: Inhibition of BTK (unknown origin) at 1 uM
[25] = biological target: Mitogen-activated protein kinase 8 (Homo sapiens) (UniProt P45983); assay: Inhibition of JNK1 (unknown origin) at 1 uM after 30 mins
Chain of Mitogen-activated protein kinase 8 (Homo sapiens) (P45983 whole entry): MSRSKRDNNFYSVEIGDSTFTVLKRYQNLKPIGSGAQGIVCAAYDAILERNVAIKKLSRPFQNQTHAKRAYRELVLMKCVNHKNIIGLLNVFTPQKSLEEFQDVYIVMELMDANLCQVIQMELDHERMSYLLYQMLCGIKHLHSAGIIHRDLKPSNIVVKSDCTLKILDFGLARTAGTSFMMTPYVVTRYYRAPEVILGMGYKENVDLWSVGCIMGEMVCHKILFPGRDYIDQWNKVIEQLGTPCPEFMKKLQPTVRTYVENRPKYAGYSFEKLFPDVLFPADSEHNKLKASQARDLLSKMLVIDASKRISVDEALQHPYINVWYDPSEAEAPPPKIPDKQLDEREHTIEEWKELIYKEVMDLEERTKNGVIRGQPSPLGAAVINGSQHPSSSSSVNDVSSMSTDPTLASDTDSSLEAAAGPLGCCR

[26] = biological target: Cyclin-dependent kinase 2 (Homo sapiens) (UniProt P24941); assay: Inhibition of human recombinant full-length CDK2 expressed in Escherichia coli at 1 uM after 30 mins
[27] = biological target: Tyrosine-protein kinase CSK (Homo sapiens) (UniProt P41240); assay: Inhibition of human recombinant full-length CSK at 1 uM after 30 mins
Chain of Tyrosine-protein kinase CSK (Homo sapiens) (P41240 2-450 limits assumed): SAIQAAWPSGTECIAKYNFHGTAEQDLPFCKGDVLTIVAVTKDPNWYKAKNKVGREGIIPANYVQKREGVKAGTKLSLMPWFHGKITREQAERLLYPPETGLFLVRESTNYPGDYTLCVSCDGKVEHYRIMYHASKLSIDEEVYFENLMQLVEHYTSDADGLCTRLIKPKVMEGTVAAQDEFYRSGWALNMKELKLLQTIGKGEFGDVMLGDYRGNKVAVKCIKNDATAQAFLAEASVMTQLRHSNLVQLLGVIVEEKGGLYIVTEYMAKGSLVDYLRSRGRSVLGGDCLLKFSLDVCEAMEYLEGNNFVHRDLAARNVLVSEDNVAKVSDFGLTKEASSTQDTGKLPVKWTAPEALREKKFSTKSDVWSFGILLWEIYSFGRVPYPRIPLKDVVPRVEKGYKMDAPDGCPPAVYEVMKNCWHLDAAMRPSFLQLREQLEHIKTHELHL

[28] = biological target: Glycogen synthase kinase-3 beta (Homo sapiens) (UniProt P49841); assay: Inhibition of human recombinant full-length GSK3beta at 1 uM after 30 mins
[29] = biological target: Fibroblast growth factor receptor 1 (Homo sapiens) (UniProt P11362); assay: Inhibition of human recombinant FGFR1 (400 to 820 residues) expressed in insect Sf21 cells at 1 uM using poly(Glu4-Tyr1) as substrate after 30 mins
[30] = biological target: Mitogen-activated protein kinase 11 (Homo sapiens) (UniProt Q15759); assay: Inhibition of human recombinant full-length p38beta at 1 uM after 30 mins
[31] = biological target: Calcium/calmodulin-dependent protein kinase kinase 2 (Homo sapiens) (UniProt Q96RR4); assay: Inhibition of human recombinant full-length CAMKKbeta expressed in Escherichia coli at 1 uM using AKPKGNKDYHLQTCCGSLAYRRR as substrate
[32] = biological target: Serine/threonine-protein kinase TBK1 (Homo sapiens) (UniProt Q9UHD2); assay: Inhibition of human recombinant full-length TBK1 expressed in insect Sf21 cells at 1 uM using AKPKGNKDYHLQTCCGSLAYRRR as substrate
[33] = biological target: Vascular endothelial growth factor receptor 1 (Homo sapiens) (UniProt P17948); assay: Inhibition of human recombinant full-length FLT1 at 1 uM after 30 mins
[34] = biological target: Mitogen-activated protein kinase 13 (Homo sapiens) (UniProt O15264); assay: Inhibition of MAPK13 (unknown origin) at 1 uM
[35] = biological target: Inhibitor of nuclear factor kappa-B kinase subunit beta (Homo sapiens) (UniProt O14920); assay: Inhibition of human recombinant full-length IKKbeta expressed in insect Sf21 cells at 1 uM using LDDRHDSGLDSMKDEEY as substrate after 30 mins
[36] = biological target: Maternal embryonic leucine zipper kinase (Homo sapiens) (UniProt Q14680); assay: Inhibition of human recombinant full-length MELK expressed in Escherichia coli at 1 uM using KKLNRTLSFAEPG as substrate after 30 mins

T1 sequence (P37023 whole entry): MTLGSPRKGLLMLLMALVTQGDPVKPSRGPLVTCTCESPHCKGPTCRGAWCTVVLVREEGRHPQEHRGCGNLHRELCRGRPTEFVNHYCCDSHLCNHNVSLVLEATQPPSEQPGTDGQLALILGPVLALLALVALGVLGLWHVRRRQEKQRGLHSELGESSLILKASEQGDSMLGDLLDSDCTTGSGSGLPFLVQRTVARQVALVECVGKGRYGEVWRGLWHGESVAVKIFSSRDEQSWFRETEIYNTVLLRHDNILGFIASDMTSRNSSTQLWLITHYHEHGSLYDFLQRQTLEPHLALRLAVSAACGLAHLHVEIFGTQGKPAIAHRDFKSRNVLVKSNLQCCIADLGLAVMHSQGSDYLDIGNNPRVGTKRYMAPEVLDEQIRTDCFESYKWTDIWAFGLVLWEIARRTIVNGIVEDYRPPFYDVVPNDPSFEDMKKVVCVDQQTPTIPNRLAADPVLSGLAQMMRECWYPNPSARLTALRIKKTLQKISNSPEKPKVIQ

## O=C(Nc1cc(Nc2c(Cl)cnc3c2OCO3)ccn1)C1CC1
[1]
  IC50: 4 nM
[2]
  IC50: 45 nM
[3]
  logD: 2.7
[4]
  solubility: 63 µM (≈ 21 µg/mL)
[5]
  INH: 4.4 µM
[6]
  INH: 0.12 µM
[7]
  IC50: 1.1 nM
[8]
  IC50: 1.2 nM
[9]
  IC50: 2.4 nM
[10]
  IC50: 31 nM
[11]
  IC50: 1.9 nM
[12]
  IC50: 1300 nM
[13]
  AUC: 3.8 µM·h
[14]
  clearance: 8.4 mL/min/kg
[15]
  bioavailability: 38%
[16]
  Ratio: > 10
[17]
  fCmax: 31.7 µM
[18]
  Drug uptake(free): 0.37 µM
[19]
  fraction unbound: 0.27
[20]
  inhibition: > 50%
[21]
  inhibition: > 50%
[22]
  inhibition: < 80%
[23]
  inhibition: < 80%
[24]
  inhibition: < 80%
[25]
  inhibition: < 80%
[26]
  inhibition: < 80%
[27]
  inhibition: < 80%
[28]
  inhibition: < 80%
[29]
  inhibition: < 80%
[30]
  inhibition: < 80%
[31]
  inhibition: < 80%
[32]
  inhibition: < 80%
[33]
  inhibition: < 80%
[34]
  inhibition: < 80%
[35]
  inhibition: < 80%
[36]
  inhibition: < 80%
